Laboratory results published in US4321265A, “7α-Methoxycephalosporins” (Toyama Chemical Co., Ltd., priority 1977, dated 1982).
Values after ≈ are worked out from the molar mass of the structure shown.

Experiments:
[1] = system: Acinetobacter caloaceticus A-6; experiment: Minimum inhibitory concentration (MIC), Heart Infusion agar; type: cell-based; conditions: A6; Acinetobacter caloaceticus A-6; 10^6 cells/ml; 20 hours, 37° C.; read-out: minimum inhibitory concentration (MIC)
Experimental: (§1) Antibacterial activities of the representative compounds (Ib) of the 7α-methoxycephalosporins according to this invention are shown in Table 1. [drawing 20]
(§2) The figures given in Table 1 represent the minimum inhibitory concentration (MIC in mcg/ml) of each compound, which was determined according to the method described in "Chemotherapy (Society of Chemotherapy, Japan), Vol. 16, 98-99 (1968)": A culture obtained by cultivating the test bacterium in a Heart Infusion broth (Eiken Kagaku Co.) was inoculated into a Heart Infusion agar medium (Eiken Kagaku Co.). After 20 hours of the incubation at 37° C., the growth of the bacterium was inspected to determine the minimum inhibitory concentration (MIC in mcg/ml). The inoculation rate of the bacterium was 10^4 cells/plate (10^6 cells/ml).
(§3) (1) Minimum inhibitory concentration (MIC in mcg/ml).

[2] = system: C. freundii GN-346 (Cephalosporinase-producing bacterium); experiment: as above; type: cell-based; conditions: Citrobacter freundii, GN346; C. freundii GN-346; 10^6 cells/ml; 20 hours, 37° C.; read-out: minimum inhibitory concentration (MIC)
Experimental: as §1, §2, §3

Citrobacter N-7 = experiment: as above; type: cell-based; conditions: N7; Citrobacter N-7; 10^6 cells/ml; 20 hours, 37° C.; read-out: minimum inhibitory concentration (MIC)
Experimental: as §1, §2, §3

E. coli NIHJ = experiment: as above; type: cell-based; conditions: Escherichia coli; E. coli NIHJ; 10^6 cells/ml; 20 hours, 37° C.; read-out: minimum inhibitory concentration (MIC)
Experimental: as §1, §2, §3

Ent. cloacae IID977 = experiment: as above; type: cell-based; conditions: Enterobacter cloacae; Ent. cloacae IID977; 10^6 cells/ml; 20 hours, 37° C.; read-out: minimum inhibitory concentration (MIC)
Experimental: as §1, §2, §3

K. pneumoniae Y-50 = experiment: as above; type: cell-based; conditions: Klebsiella pneumoniae, Y50; K. pneumoniae Y-50; 10^6 cells/ml; 20 hours, 37° C.; read-out: minimum inhibitory concentration (MIC)
Experimental: as §1, §2, §3

Klebsiella spp. Y-72 = experiment: as above; type: cell-based; conditions: SPP.Y72; Klebsiella spp. Y-72; 10^6 cells/ml; 20 hours, 37° C.; read-out: minimum inhibitory concentration (MIC)
Experimental: as §1, §2, §3

Prot. vulgaris GN-76 = experiment: as above; type: cell-based; conditions: Proteus vulgaris, GN76; Prot. vulgaris GN-76; 10^6 cells/ml; 20 hours, 37° C.; read-out: minimum inhibitory concentration (MIC)
Experimental: as §1, §2, §3

Ps. aeruginosa IFO-3445 = experiment: as above; type: cell-based; conditions: Pseudomonas aeruginosa, IFO3445; Ps. aeruginosa IFO-3445; 10^6 cells/ml; 20 hours, 37° C.; read-out: minimum inhibitory concentration (MIC)
Experimental: as §1, §2, §3

Ps. aeruginosa S-68 = experiment: as above; type: cell-based; conditions: Pseudomonas aeruginosa, S68; Ps. aeruginosa S-68; 10^6 cells/ml; 20 hours, 37° C.; read-out: minimum inhibitory concentration (MIC)
Experimental: as §1, §2, §3

[3] = system: S. aureus F-19 (Penicillinase-producing bacterium); experiment: as above; type: cell-based; conditions: Staphylococcus aureus; S. aureus F-19; 10^6 cells/ml; 20 hours, 37° C.; read-out: minimum inhibitory concentration (MIC)
Experimental: as §1, §2, §3

Ser. marcescens IID620 = experiment: as above; type: cell-based; conditions: Serratia marcescens; Ser. marcescens IID620; 10^6 cells/ml; 20 hours, 37° C.; read-out: minimum inhibitory concentration (MIC)
Experimental: as §1, §2, §3

Ser. marcescens W-8 = experiment: as above; type: cell-based; conditions: Serratia marcescens, W8; Ser. marcescens W-8; 10^6 cells/ml; 20 hours, 37° C.; read-out: minimum inhibitory concentration (MIC)
Experimental: as §1, §2, §3

Ser. marcescens W-35 = experiment: as above; type: cell-based; conditions: Serratia marcescens, W35, 20 h, Ser. marcescens W-35; 10^6 cells/ml; 20 hours, 37° C. (Table 1); read-out: minimum inhibitory concentration (MIC)
Experimental: as §1
as §2, with “The inoculation rate of the bacterium was 10^4 cells/plate (10^6 cells/ml).” left out
as §3

[4] = molecular target: T1, Cephalosporinase (E. coli GN-5482) (Escherichia coli, UniProt P00811); experiment: Stability to β-lactamase, iodometry (Perret); type: biochemical; conditions: E. coli GN-5482 cephalosporinase; CER = 100; 30° C., pH 7.0
T1 construct: native preparation, details not in excerpts
T1 sequence (P00811 20-377): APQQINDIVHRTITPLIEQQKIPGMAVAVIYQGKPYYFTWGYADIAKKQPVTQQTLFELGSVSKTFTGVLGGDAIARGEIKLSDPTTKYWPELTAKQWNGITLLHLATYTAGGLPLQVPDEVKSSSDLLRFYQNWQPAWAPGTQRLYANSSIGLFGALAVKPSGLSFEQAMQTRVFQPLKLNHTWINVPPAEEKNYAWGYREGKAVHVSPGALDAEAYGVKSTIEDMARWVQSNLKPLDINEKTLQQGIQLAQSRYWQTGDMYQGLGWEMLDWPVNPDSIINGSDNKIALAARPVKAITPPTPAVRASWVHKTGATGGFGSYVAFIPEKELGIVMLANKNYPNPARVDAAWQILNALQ
Experimental: (§4) The stability to β-lactamase was examined by iodometry at 30° C. by the method of Perret (Perret, C. J., "Iodometric assay of penicillinase", Nature, 174, 1012-1013 (1954)), except that a 0.1 M phosphate buffer solution (pH 7.0) was used in place of the 0.2 M phosphate buffer solution (pH 6.5). The stability of each compound was shown in Table 2 in terms of relative degree of hydrolysis, assuming the stability of Cephaloridin (CER) to cephalosporinase as 100 and the stability of Penicillin G (PCG) to penicillinase as 100.

[5] = molecular target: T2, Cephalosporinase (S. marcescens W-8) (Serratia marcescens, UniProt P18539); experiment: Stability to β-lactamase, iodometry (Perret); type: biochemical; conditions: S. marcescens W-8 cephalosporinase; CER = 100; 30° C., pH 7.0
T2 construct: native preparation, details not in excerpts
T2 sequence (P18539 22-376): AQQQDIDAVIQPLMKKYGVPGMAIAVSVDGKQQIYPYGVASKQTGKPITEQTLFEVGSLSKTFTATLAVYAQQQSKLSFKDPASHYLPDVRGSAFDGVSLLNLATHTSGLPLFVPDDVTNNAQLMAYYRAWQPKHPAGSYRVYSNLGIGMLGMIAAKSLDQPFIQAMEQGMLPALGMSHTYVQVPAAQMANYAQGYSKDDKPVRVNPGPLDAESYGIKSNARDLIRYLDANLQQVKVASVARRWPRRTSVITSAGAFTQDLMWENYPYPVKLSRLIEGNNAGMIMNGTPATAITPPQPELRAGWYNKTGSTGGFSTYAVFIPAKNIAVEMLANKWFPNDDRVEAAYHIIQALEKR
Experimental: as §4

[6] = system: Penicillinase (E. coli TK-3); experiment: Stability to β-lactamase, iodometry (Perret); type: biochemical; conditions: E. coli TK-3 penicillinase; PCG = 100; 30° C., pH 7.0
Experimental: as §4

[7] = system: Penicillinase (K. pneumoniae Y-4); experiment: Stability to β-lactamase, iodometry (Perret); type: biochemical; conditions: K. pneumoniae Y-4 penicillinase; PCG = 100; 30° C., pH 7.0
Experimental: as §4

[8] = system: Penicillinase (P. aeruginosa GN-3379); experiment: Stability to β-lactamase, iodometry (Perret); type: biochemical; conditions: P. aeruginosa GN-3379 penicillinase; PCG = 100; 30° C., pH 7.0
Experimental: as §4

Row | MIC [1] | MIC [2] | MIC (Citrobacter N-7) | MIC (E. coli NIHJ) | MIC (Ent. cloacae IID977) | MIC (K. pneumoniae Y-50) | MIC (Klebsiella spp. Y-72) | MIC (Prot. vulgaris GN-76) | MIC (Ps. aeruginosa IFO-3445) | MIC (Ps. aeruginosa S-68) | MIC [3] | MIC (Ser. marcescens IID620) | MIC (Ser. marcescens W-8) | MIC (Ser. marcescens W-35) | SMILES | Stability to β-lactamase, relative degree of hydrolysis [4] | Stability to β-lactamase, relative degree of hydrolysis [5] | Stability to β-lactamase, relative degree of hydrolysis [6] | Stability to β-lactamase, relative degree of hydrolysis [7] | Stability to β-lactamase, relative degree of hydrolysis [8]
1 | 25 µg/mL (≈ 35.2 µM) | 50 µg/mL (≈ 70.4 µM) | 1.56 µg/mL (≈ 2.2 µM) | ≤ 0.1 µg/mL | 25 µg/mL (≈ 35.2 µM) | 6.25 µg/mL (≈ 8.81 µM) | 25 µg/mL (≈ 35.2 µM) | 0.78 µg/mL (≈ 1.1 µM) | 25 µg/mL (≈ 35.2 µM) | 50 µg/mL (≈ 70.4 µM) | 6.25 µg/mL (≈ 8.81 µM) | 0.78 µg/mL (≈ 1.1 µM) | 50 µg/mL (≈ 70.4 µM) | 100 µg/mL (≈ 141 µM) | CCN1CCN(C(=O)NC(C(=O)N[C@]2(OC)C(=O)N3C(C(=O)O)=C(CSc4nnnn4CC(=O)O)CS[C@@H]32)c2cccs2)C(=O)C1=O (some centres unmarked) |  |  |  |  | 
2 | 6.25 µg/mL (≈ 8.98 µM) | 12.5 µg/mL (≈ 18 µM) | 1.56 µg/mL (≈ 2.24 µM) | ≤ 0.1 µg/mL | 25 µg/mL (≈ 35.9 µM) | 0.39 µg/mL (≈ 0.561 µM) | 1.56 µg/mL (≈ 2.24 µM) | 0.39 µg/mL (≈ 0.561 µM) | 12.5 µg/mL (≈ 18 µM) | 12.5 µg/mL (≈ 18 µM) | 3.13 µg/mL (≈ 4.5 µM) | 0.2 µg/mL (≈ 0.287 µM) | 50 µg/mL (≈ 71.9 µM) | 12.5 µg/mL (≈ 18 µM) | CCN1CCN(C(=O)NC(C(=O)N[C@]2(OC)C(=O)N3C(C(=O)O)=C(CSc4nnnn4CCO)CS[C@@H]32)c2cccs2)C(=O)C1=O (some centres unmarked) |  |  |  |  | 
3 | 6.25 µg/mL (≈ 9.45 µM) | 25 µg/mL (≈ 37.8 µM) | 6.25 µg/mL (≈ 9.45 µM) | ≤ 0.1 µg/mL | 25 µg/mL (≈ 37.8 µM) | 0.78 µg/mL (≈ 1.18 µM) | 12.5 µg/mL (≈ 18.9 µM) | 3.13 µg/mL (≈ 4.73 µM) | 12.5 µg/mL (≈ 18.9 µM) | 25 µg/mL (≈ 37.8 µM) | 3.13 µg/mL (≈ 4.73 µM) | 0.78 µg/mL (≈ 1.18 µM) | 100 µg/mL (≈ 151 µM) | 50 µg/mL (≈ 75.6 µM) | CCN1CCN(C(=O)NC(C(=O)N[C@]2(OC)C(=O)N3C(C(=O)O)=C(CSc4nnnn4C)CS[C@@H]32)C2=CCC=CC2)C(=O)C1=O (some centres unmarked) |  |  |  |  | 
4 |  |  |  |  |  |  |  |  |  |  |  |  |  |  | O=C(Cc1cccs1)N[C@@H]1C(=O)N2C(C(=O)[O-])=C(C[n+]3ccccc3)CS[C@H]12 [CER, Cephaloridin] | 100 | 100 | 115 | 41 | 18
